Measured values taken from EP0066351A1, “Arylethanol amine derivatives, their preparation and use in pharmaceutical compositions” (priority 1981, dated 1982).
Where a name gives a salt, the structure may show the parent alone. Read-outs that look alike come from different tables or passages of the source.

What was measured:
Female CFLP mice [1] = assay: Hypoglycaemic activity: blood glucose after subcutaneous glucose load in fasted mice; format: in vivo; conditions: glucose 1 g/kg s.c. 30 minutes after dosing, area over 2 hours vs water controls
Procedure: Female CFLP mice, each weighing approximately 25 g, were fasted for 24 hours prior to the study. The compounds under study were administered orally as an aqueous solution to each of 7 mice. 7 mice were given water as a control. 30 minutes later a blood sample (20 µl) was obtained from the tail for the analysis of blood glucose. Immediately after taking this blood sample, glucose (1 g/kg body weight) was administered subcutaneously to each mouse. Blood samples were then obtained from each mouse at 30 minute intervals for 120 minutes.
Compounds that produced a significant (P<0.05) reduction of blood glucose, compared with control mice given water, at any time interval, were considered active. The area under the blood glucose curve over the 2 hour period after the administration of the glucose was calculated for each compound and compared with the value for control animals.

Female CFLP mice [2] = assay: Effect on energy expenditure and food intake of mice; format: in vivo; conditions: Mus musculus; for response vs control in vivo at 18.8 mg/kg / response vs control in vivo at 23.6 mg/kg / response vs control in vivo at 25.5 mg/kg / response vs control in vivo at 21.3 mg/kg / response vs control in vivo at 23.8 mg/kg / response vs control in vivo at 20.7 mg/kg / response vs control in vivo at 20.8 mg/kg / response vs control in vivo at 26.7 mg/kg / response vs control in vivo at 21.2 mg/kg / response vs control in vivo at 25.6 mg/kg / response vs control in vivo at 19.6 mg/kg: po, 21 h; for response vs control in vivo at 18.9 mg/kg: dose 18.9 mg/kg po, mice, 21 hours after dosing, percentage of mice dosed with water
Procedure: Female CFLP mice each weighing approximately 24 g, were given food and water ad lib before and during the experiment. The compounds were dissolved in water by addition of one mole of hydrochloric acid per mole of compound and these solutions were administered orally to each of 12 mice. A further 12 mice were dosed orally with water. The mice were placed in boxes through which air was drawn and the oxygen content of the air leaving the boxes was measured. The energy expenditure of the mice was calculated for 21 hours after dosing from the volume of air leaving the boxes and its oxygen content following the principles described by J B de V Weir, J Physiol (London) 109, 1-9, (1949). The food intake of the mice was measured over this same period of 21 hours. The results are expressed as a percentage of the mean food intake or rate of energy expenditure of the mice dosed with water.

Rat hearts = assay: Cardiac activity: rat hearts perfused by the Langendorff procedure
Procedure: Rat hearts were perfused by the Langendorff procedure as follows: • Hearts were dissected free within 30 seconds of death and reverse perfused via the aorta and coronary vessels with Krebs-Ringer bicarbonate solution (pH 7.4, 37 °C) gassed with 95% oxygen:5% carbon dioxide at a flow rate between 8-12 cm^3/minute. Responses were observed after injection of drug dissolved in isotonic saline into the perfusion media.
Results are expressed as a percentage of the maximum response due to salbutamol.

rat ear = assay: Topical anti-inflammatory activity: croton oil induced inflammation in the rat ear; format: in vivo; conditions: dose 1.0 mg/rat ear, topical in 1% croton oil in tetrahydrofuran; ear weight after 6 hours; active = significant (5% level) reduction vs non-drug treated control
Procedure: The method used is based on that described by G. Tonelli et al (Endocrinology, 77, 625-634, 1965). An inflammation is induced in the rat ear by the application of 50 µl of a 1% solution of croton oil in tetrahydrofuran, test compounds being dissolved in the irritant vehicle. After 6 hours the inflammation is assessed by killing the animals and weighing the ears. Topical anti-inflammatory activity of a compound is generally considered to be shown when a significant (5% level) reduction in ear weight is seen compared to non-drug treated control.

platelets = assay: Collagen-induced platelet aggregation in human whole blood in vitro; format: cell-based; conditions: collagen EC50 in presence of compound divided by control EC50, 3 mins preincubation
Procedure: Collagen-induced platelet aggregation in human whole blood in vitro.
Collagen added to stirred citrated blood causes platelet aggregation. As the platelets aggregate, the concentration of single platelets falls. […] Inhibitors of aggregation, such as aspirin and dipyridamole, reduce the response to collagen.
Blood drawn from volunteers who denied taking aspirin within the previous seven days was mixed with 0.1 vol 129 mM trisodium citrate, dispensed into 0.5 ml aliquots and kept at 25°. Collagen (Hormon-Chemie, Munich) or 154 mM NaCl (control) was added to each aliquot of blood stirred at 1100 rpm in an aggregometer at 37° after 3 mins preincubation with compound or appropriate solvent. Aggregates were fixed by addition of 0.5 vol 4.5% formaldehyde or 0.05 vol phosphate-buffered glutaraldehyde. Single platelets were counted electronically. Responses, expressed as per cent fall in platelet count, were obtained to a range of collagen concentrations. The concentration producing a 50% maximal effect (EC50) was estimated from log10 concentration-response curves. Dose-ratios were calculated by dividing the EC50 obtained in the presence of compound under test by the control EC50.

[3] = read-out: Mean Energy Expenditure (%)
[4] = Rattus norvegicus, read-out: Heart Rate
[5] = Rattus norvegicus, read-out: Heart Tension
[6] = final concentration in whole blood 300 µM
[7] = final concentration in whole blood 200 µM
[8] = 10 μg added to perfusate, percentage of the maximum response due to salbutamol, perfused rat heart, read-out: Heart Rate
[9] = 10 μg added to perfusate, percentage of the maximum response due to salbutamol, perfused rat heart, read-out: Heart Tension

CC(Cc1ccc(O)cc1)NCC(O)c1cccc(C(F)(F)F)c1 (stereo not shown) [Example 2, N-[2-(4-Hydroxyphenyl)-1-methylethyl]-2-hydroxy-2-(3-trifluoromethylphenyl)ethanamine]
Reduction in area under Blood glucose curve (%) (Female CFLP mice [1]; dose 12.5 μ moles/kg po): 59%
response vs control in vivo at 18.8 mg/kg (Female CFLP mice [2]; [3]): 126%
response vs control in vivo at 18.8 mg/kg (Female CFLP mice [2]; read-out: Mean Food Intake (%)): 90%
Emax at 0.01 mg (Rat hearts; [4]): 73%
Emax at 0.01 mg (Rat hearts; [5]): 64%
Activity (rat ear): Active
Dose-ratio (platelets; [6]): 2.2

COc1ccc(CCC(C)(C)NCC(O)c2cccc(C(F)(F)F)c2)cc1 (stereo not shown) [Example 14, N-[3-(4-Methoxyphenyl)-1,1-dimethylpropyl]-2-hydroxy-2-(3-trifluoromethylphenyl) ethanamine]
Reduction in area under Blood glucose curve (%) (Female CFLP mice [1]; dose 100 μ moles/kg po): 34%

CC(=O)Oc1ccccc1C(=O)O [Aspirin, reference compound]
Dose-ratio (platelets; [7]): 2.4 ± 0.3(3)

CCCCCOc1ccc(CC(C)NCC(O)c2cccc(C(F)(F)F)c2)cc1 (stereo not shown) [Example 11, N-[2-(4-^nPentyloxyphenyl)-1-methylethyl]-2-hydroxy-2-(3-trifluoromethylphenyl) ethanamine]
Reduction in area under Blood glucose curve (%) (Female CFLP mice [1]; dose 2.5 μ moles/kg po): 47%
response vs control in vivo at 23.6 mg/kg (Female CFLP mice [2]; [3]): 118%
response vs control in vivo at 23.6 mg/kg (Female CFLP mice [2]; read-out: Mean Food Intake (%)): 106%

OCCN(CCO)c1nc(N2CCCCC2)c2nc(N(CCO)CCO)nc(N3CCCCC3)c2n1 [Dipyridamole, reference compound]
Dose-ratio (platelets; [7]): 3.7 ± 1.1(4)

COc1ccc(C[C@@H](C)NC[C@H](O)c2cccc(C(F)(F)F)c2)cc1F (racemic) [Example 9, N-[2-(3-Fluoro-4-methoxyphenyl)-1-methylethyl]-2-hydroxy-2-(3-trifluoromethylphenyl)ethanamine hydrobromide-(RR,SS) diastereoisomer]
Reduction in area under Blood glucose curve (%) (Female CFLP mice [1]; dose 2.5 μ moles/kg po): 18%
response vs control in vivo at 25.5 mg/kg (Female CFLP mice [2]; [3]): 115%
response vs control in vivo at 25.5 mg/kg (Female CFLP mice [2]; read-out: Mean Food Intake (%)): 78%
Emax at 0.01 mg (Rat hearts; [4]): 16%
Emax at 0.01 mg (Rat hearts; [5]): 4%

COc1ccc(CC(C)NCC(O)c2cccc(C(F)(F)F)c2)cc1OC (stereo not shown) [Example 3, N-[2-(3,4-Dimethoxyphenyl)-1-methylethyl]-2-hydroxy-2-(3-trifluoromethylphenyl)ethanamine]
Reduction in area under Blood glucose curve (%) (Female CFLP mice [1]; dose 12.5 μ moles/kg po): 43%
response vs control in vivo at 21.3 mg/kg (Female CFLP mice [2]; [3]): 109%
response vs control in vivo at 21.3 mg/kg (Female CFLP mice [2]; read-out: Mean Food Intake (%)): 100%
Emax at 0.01 mg (Rat hearts; [8]): 14%
Emax at 0.01 mg (Rat hearts; [9]): 33%
Activity (rat ear): Active

CC(Cc1ccc(OCc2ccccc2)cc1)NCC(O)c1cccc(C(F)(F)F)c1 (stereo not shown) [Example 1, N-[2-(4-Benzyloxyphenyl)-1-methylethyl]-2-hydroxy-2-(3-trifluoromethylphenyl)ethanamine]
Reduction in area under Blood glucose curve (%) (Female CFLP mice [1]; dose 12.5 μ moles/kg po): 36%
response vs control in vivo at 23.8 mg/kg (Female CFLP mice [2]; [3]): 115%
response vs control in vivo at 23.8 mg/kg (Female CFLP mice [2]; read-out: Mean Food Intake (%)): 100%
Emax at 0.01 mg (Rat hearts; [8]): 0%
Emax at 0.01 mg (Rat hearts; [9]): 7%

COc1ccc(CC(C)NCC(O)c2cccc(C(F)(F)F)c2)cc1F (stereo not shown) [Example 4, N-[2-(3-Fluoro-4-methoxyphenyl)-1-methylethyl]-2-hydroxy-2 (3-trifluoromethylphenyl)ethanamine]
Reduction in area under Blood glucose curve (%) (Female CFLP mice [1]; dose 1.0 μ moles/kg po): 28%
response vs control in vivo at 20.7 mg/kg (Female CFLP mice [2]; [3]): 113%
response vs control in vivo at 20.7 mg/kg (Female CFLP mice [2]; read-out: Mean Food Intake (%)): 86%
Emax at 0.01 mg (Rat hearts; [4]): 0%
Emax at 0.01 mg (Rat hearts; [5]): 5%
Dose-ratio (platelets; [6]): 2.3

CC(Cc1ccc(O)c(Cl)c1)NCC(O)c1cccc(C(F)(F)F)c1 (stereo not shown) [Example 8, N-[2-(3-Chloro-4-hydroxyphenyl)-1-methylethyl]-2-hydroxy-2-(3-trifluoromethylphenyl)ethanamine]
Reduction in area under Blood glucose curve (%) (Female CFLP mice [1]; dose 2.5 μ moles/kg po): 11%
response vs control in vivo at 20.8 mg/kg (Female CFLP mice [2]; [3]): 118%
response vs control in vivo at 20.8 mg/kg (Female CFLP mice [2]; read-out: Mean Food Intake (%)): 88%
Emax at 0.01 mg (Rat hearts; [4]): 23%
Emax at 0.01 mg (Rat hearts; [5]): 8%

CCCCCCCCCCOc1ccc(CC(C)NCC(O)c2cccc(C(F)(F)F)c2)cc1 (stereo not shown) [Example 10, N-[2-(4-^nDecyloxyphenyl)-1-methylethyl)-2-hydroxy-2-(3-trifluoromethylphenyl) ethanamine]
Reduction in area under Blood glucose curve (%) (Female CFLP mice [1]; dose 5.0 μ moles/kg po): 48%
response vs control in vivo at 26.7 mg/kg (Female CFLP mice [2]; [3]): 118%
response vs control in vivo at 26.7 mg/kg (Female CFLP mice [2]; read-out: Mean Food Intake (%)): 89%

CC(Cc1ccc(OC(C)C)cc1)NCC(O)c1cccc(C(F)(F)F)c1 (stereo not shown) [Example 12, N-(2-(4-Isopropoxyphenyl)-1-methylethyl]-2-hydroxy-2-(3-trifluoromethylphenyl) ethanamine]
Reduction in area under Blood glucose curve (%) (Female CFLP mice [1]; dose 2.5 μ moles/kg po): 52%
response vs control in vivo at 21.2 mg/kg (Female CFLP mice [2]; [3]): 122%
response vs control in vivo at 21.2 mg/kg (Female CFLP mice [2]; read-out: Mean Food Intake (%)): 94%

COc1ccc(CCNCC(O)c2cccc(C(F)(F)F)c2)cc1 (stereo not shown) [Example 13, N-[2-(4-Methoxyphenyl)ethyl]-2-hydroxy-2-(3-trifluoromethylphenyl) ethanamine]
Reduction in area under Blood glucose curve (%) (Female CFLP mice [1]; dose 5.0 μ moles/kg po): 27%
response vs control in vivo at 18.9 mg/kg (Female CFLP mice [2]; [3]): 112%
response vs control in vivo at 18.9 mg/kg (Female CFLP mice [2]; read-out: Mean Food Intake (%)): 104%

CC(Cc1ccc(OCc2ccccc2)c(Cl)c1)NCC(O)c1cccc(C(F)(F)F)c1 (stereo not shown) [Example 7, N-[2-(4-Benzyloxy-3-chlorophenyl)-1-methylethyl]-2-hydroxy-2-(3-trifluoromethylphenyl)ethanamine]
Reduction in area under Blood glucose curve (%) (Female CFLP mice [1]; dose 12.5 μ moles/kg po): 28%
Emax at 0.01 mg (Rat hearts; [8]): 0%
Emax at 0.01 mg (Rat hearts; [9]): 0%

COc1cc(CC(C)NCC(O)c2cccc(C(F)(F)F)c2)ccc1OCc1ccccc1 (stereo not shown) [Example 6, N-[2-(4-Benzyloxy-3-methoxyphenyl)-1-methylethyl]-2-hydroxy-2-(3-trifluoromethylphenyl)ethanamine]
response vs control in vivo at 25.6 mg/kg (Female CFLP mice [2]; [3]): 114%
response vs control in vivo at 25.6 mg/kg (Female CFLP mice [2]; read-out: Mean Food Intake (%)): 75%
Emax at 0.01 mg (Rat hearts; [8]): 6%
Emax at 0.01 mg (Rat hearts; [9]): 25%

COc1ccc(CC(C)NCC(O)c2cccc(C(F)(F)F)c2)cc1 (stereo not shown) [Example 5, N-[2-(4-Methoxyphenyl)-1-methylethyl]-2-hydroxy-2-(3-trifluoromethylphenyl) ethanamine]
Reduction in area under Blood glucose curve (%) (Female CFLP mice [1]; dose 1.0 μ moles/kg po): 27%
response vs control in vivo at 19.6 mg/kg (Female CFLP mice [2]; [3]): 119%
response vs control in vivo at 19.6 mg/kg (Female CFLP mice [2]; read-out: Mean Food Intake (%)): 88%
Emax at 0.01 mg (Rat hearts; [4]): 0%
Emax at 0.01 mg (Rat hearts; [5]): 8%
